Source: patent publication US10934263B2, “Charged ion channel blockers and methods for use” (Nocion Therapeutics, Inc., priority 2019, dated 2021)

Tests used:
[1] = PAMPA membrane permeability assay; type: in vitro ADME; conditions: PAMPA permeability coefficient, GIT lipid, buffer pH 7.4, 4 hours incubation
Procedure, shortened: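 Passive permeability across GIT lipid-coated artificial membrane; compounds at 50 μM in pH 7.4 buffer in donor wells, incubated 4 h. Donor, acceptor and reference concentrations read by UV spectroscopy, permeability coefficient calculated from spectral AUCs.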

NaV1.7 [2] = molecular target: T1, NaV1.7 (Homo sapiens, UniProt Q15858); experiment: Whole cell patch clamp, external block of NaV1.7 current (compound in external solution); type: cell-based; conditions: compound applied externally, read-out: Nav1.7 Extracellular Inhibition; for inhibition at 30 µM: % inhibition at test concentration 30 μM
T1 construct: expressed in transfected cells; tetracycline-inducible, kept under hygromycin and blasticidin
Description: Representative compounds of the invention were synthesized according to the described methods and tested for the ability to inhibit voltage-gated sodium channels.
NaV1.7 was expressed upon induction with tetracycline. Cells were cultured in DMEM containing 10% dialyzed Fetal Bovine Serum (VWR, Radnor, Pa.), 1% Glutamax (VWR, Radnor, Pa.), 1% Penicillin-Streptomycin (VWR, Radnor, Pa.), 100 mg/L Hygromycin (Thermo Fisher Scientific, Waltham, Mass. and 5 mg/L Blasticidin (Alfa Aesar, Haverhill, Mass.). Cells were grown and maintained at 37° C. in a humidified environment containing 10% CO2 in air. Cells were detached from the culture flask for passage and harvested using 0.05% Trypsin-EDTA (Thermo Fisher Scientific, Waltham, Mass.). To induce NaV1.7, cells were induced with tetracycline (0.1-1 μg/mL, IBI Scientific, Peosta, Iowa) the day before recording and plated onto 24-well plates. Cells were washed with DPBS (VWR, Radnor, Pa.), trypsinized and then triturated five times in 10 mL of growth media to break apart cell aggregates. For one 24-well plate, 2 mL of cell suspension was mixed with 23 mL of fresh growth media and 0.1-1 μg/mL tetracycline added. 1 ml of mixed media with cells was then added to each well of a 24-well plate, with a 12 mm coverslip already placed in the bottom of the well. Cells were then incubated in 37° C. and 10% CO2 overnight.
The intracellular solution contained the following (in mM) CsCl 135, NaCl 10, EGTA 10, HEPES 10, MgCl2 2, adjusted to pH 7.2 with CsOH. The external solution was a normal Ringer solution containing (in mM) NaCl 155, HEPES 10, glucose 10, KCl 3.5, CaCl2 1.5, MgCl2 1 adjusted to pH 7.4 with NaOH. CsCl is from Alfa Aesar, Haverhill, Mass. All other chemicals are from Sigma-Aldrich, St. Louis, Mo. In order to test the degree of internal block by test compounds the compounds were dissolved in internal solution at the indicated test concentration. […] In order to test the degree of external block by test compounds the compounds were dissolved in external solution at the indicated test concentration.
18-24 hours after cells were induced with tetracycline, coverslips were placed into a chamber filled with Normal Ringer solution at room temperature and the chamber placed on a microscope. Pipettes were pulled from borosilicate glass on a P97 puller (Sutter Instrument, Novato, Calif.) and polished with a MF-830 Microforge (Narishige International USA, Inc, Amityville, N.Y.) to have a resistance of 1.5-2.5 MΩ when filled with CsCl internal solution at room temperature. Healthy cells (those that are round and translucent with no visible blemishes) were chosen for seal formation. A seal was formed between the pipette and the cell, and a brief pulse of suction was used to “break in” and establish the whole-cell configuration. The membrane potential was held at −100 mV before the voltage protocol began. Only cells with series resistance between 1.5-5 MΩ were retained for analysis. The voltage protocol was as follows: Cells were held at −100 mV for 12 ms followed by a hyperpolarizing step to −105 mV for 12 ms to monitor the leak. Cells were then stepped back to −100 mV for 40 ms. Cells were then depolarized to −20 mV for 10 ms and then returned to −100 mV for 26 ms.
Once the recording was started, the voltage protocol was run at 30 second intervals for 5 minutes to get a stable baseline. This is followed by 5 Hz stimulation of the same voltage protocol run until the end of experiment. […] The test compound is added for 5 minutes before washing out with normal Ringer's solution. Currents were recorded using PatchMaster software with Heka EPC10 (HEKA Electronics, Lambrecht, Germany). Only cells with inward current amplitudes at −20 mV between 400 pA and 4 nA were accepted. In addition, cells having leak currents greater than 10% of their current amplitudes were discarded. […]

NaV1.7 [3] = molecular target: T1, NaV1.7; experiment: Whole cell patch clamp, internal block of NaV1.7 current (compound in internal solution); type: cell-based; conditions: compound applied internally, manual patch clamp, read-out: Nav1.7 Intracellular Inhibition
Procedure, shortened: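 Tetracycline-induced NaV1.7 cells, whole-cell patch clamp at room temperature with compound in CsCl internal solution (pH 7.2), Ringer bath (pH 7.4). Held at −100 mV, steps to −20 mV; after baseline, four 30-s 5 Hz trains. Peak inward current at end of last train divided by baseline gives fraction remaining.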

NaV1.7 [4] = molecular target: T1, NaV1.7; experiment: Automated patch clamp (Qube 384), internal block of NaV1.7 in HEK293 cells; type: cell-based; conditions: compound in internal solution, read-out: Nav1.7 Intracellular Inhibition (IC50)
Description: (§1) NaV1.7 was expressed in HEK293 cells upon induction with tetracycline. Cells were cultured in DMEM containing 10% dialyzed Fetal Bovine Serum (VWR, Radnor, Pa.), 1% Glutamax (VWR, Radnor, Pa.), 1% Penicillin-Streptomycin (VWR, Radnor, Pa.), 100 mg/L Hygromycin (Thermo Fisher Scientific, Waltham, Mass. and 5 mg/L Blasticidin (Alfa Aesar, Haverhill, Mass.). Cells were grown and maintained at 37° C. in a humidified environment containing 10% CO2 in air. Cells were detached from the culture flask for passage and harvested using 0.05% Trypsin-EDTA (Thermo Fisher Scientific, Waltham, Mass.). To induce NaV1.7, cells were induced with tetracycline (0.1-1 μg/mL, IBI Scientific, Peosta, Iowa) the day before recording.
(§2) Before experiments, cells were washed with DPBS (VWR, Radnor, Pa.), digested with Detachin (VWR Radnor, Pa.) and then triturated 10 times in CHO Serum-Free Media (VWR Radnor, Pa.) to resuspend the cells and to break apart cell aggregates. Cells were counted and the final concentration was set at 2-5 million cells per mL.
(§3) The intracellular solution contained the following: 140 mM CsF, 1 mM/5 mM EGTA/CsOH, 10 mM HEPES, 10 mM NaCl, adjusted to pH 7.3 with CsOH, and osmolality to 320 with sucrose. The external solution contained the following: 145 mM NaCl, 4 mM KCl, 1 mM MgCl2, 2 mM CaCl2, 10 mM HEPES, 10 mM Glucose, adjusted to pH 7.4 with CsOH and osmolality to 305 with sucrose. All chemicals are from Sigma-Aldrich, St. Louis, Mo. In order to test the degree of internal block by test compounds, the compounds were dissolved in internal solution at the indicated test concentration. […] In order to test the degree of external block by test compounds the compounds were dissolved in external solution at the indicated test concentration.
(§4) Automated Patch Clamps were performed on Qube 384 (Sophion Bioscience, Woburn Mass.) with multihole Qchips at a temperature setting of 22 degrees. The whole cells configuration was formed with default Qube seal and break-in parameter. The membrane potential was held at −100 mV before the voltage protocol began. Two voltage protocols were followed.
(§5) Step 1: Cells were held at −100 mV with a depolarized pulse to −20 mV for 10 ms, the interval was set at 5 s. Currents were corrected by default leak subtraction from every pulse. The duration was set at 5 mins.
(§6) Step 2: Cells were held at −100 mV with a depolarized pulse to −20 mV for 10 ms. The frequency was 5 Hz. Currents were corrected by leak subtraction calculated before step 2. The duration was set at 4 mins.
After Step 2, the Qchip was removed from the recording chamber. The internal solution was changed with solutions containing test compounds. Qchips were held at −100 mV without pulsing after being replaced in the recording chamber. The total solution switching time was 8 minutes. After the internal solution exchange, Cells were recorded and step 2 for repeated for 10 minutes.
Data analysis was performed by Sophion Analyzer. Cells were filtered with minimum 50 MOhm seal resistance and minimum 5 nA starting current. The rundown of the currents was corrected with control cells (Non-Drug). The remaining was calculated by averaging last 3 points in the end of experiments. The base line was calculated as the average of last 3 points of Step 2. IC50 curves were plotted with DR-plots/Hill function (a dose-response plot with a Hill fit). Data analysis was performed by Sophion Analyzer.

NaV1.7 [5] = molecular target: T1, NaV1.7; experiment: Automated patch clamp (Qube 384), external block of NaV1.7 in HEK293 cells; type: cell-based; conditions: compound in external solution, read-out: Nav1.7 Extracellular Inhibition (IC50)
Description: as §1, §2, §3, §4, §5, §6
After Step 2, the external solution was changed with solutions containing test compounds. Qchips were held at −100 mV without pulsing. The total solution switching time was 8 minutes. After the external solution exchange, cells were recorded using the same procedure as step 2 for 10 minutes.
Data analysis was performed by Sophion Analyzer. Data were corrected with control cells (Non-Drug). The IC50 data were plotted with DR-plots/Hill function (a dose-response plot with a Hill fit).

T1 sequence (Q15858 whole entry): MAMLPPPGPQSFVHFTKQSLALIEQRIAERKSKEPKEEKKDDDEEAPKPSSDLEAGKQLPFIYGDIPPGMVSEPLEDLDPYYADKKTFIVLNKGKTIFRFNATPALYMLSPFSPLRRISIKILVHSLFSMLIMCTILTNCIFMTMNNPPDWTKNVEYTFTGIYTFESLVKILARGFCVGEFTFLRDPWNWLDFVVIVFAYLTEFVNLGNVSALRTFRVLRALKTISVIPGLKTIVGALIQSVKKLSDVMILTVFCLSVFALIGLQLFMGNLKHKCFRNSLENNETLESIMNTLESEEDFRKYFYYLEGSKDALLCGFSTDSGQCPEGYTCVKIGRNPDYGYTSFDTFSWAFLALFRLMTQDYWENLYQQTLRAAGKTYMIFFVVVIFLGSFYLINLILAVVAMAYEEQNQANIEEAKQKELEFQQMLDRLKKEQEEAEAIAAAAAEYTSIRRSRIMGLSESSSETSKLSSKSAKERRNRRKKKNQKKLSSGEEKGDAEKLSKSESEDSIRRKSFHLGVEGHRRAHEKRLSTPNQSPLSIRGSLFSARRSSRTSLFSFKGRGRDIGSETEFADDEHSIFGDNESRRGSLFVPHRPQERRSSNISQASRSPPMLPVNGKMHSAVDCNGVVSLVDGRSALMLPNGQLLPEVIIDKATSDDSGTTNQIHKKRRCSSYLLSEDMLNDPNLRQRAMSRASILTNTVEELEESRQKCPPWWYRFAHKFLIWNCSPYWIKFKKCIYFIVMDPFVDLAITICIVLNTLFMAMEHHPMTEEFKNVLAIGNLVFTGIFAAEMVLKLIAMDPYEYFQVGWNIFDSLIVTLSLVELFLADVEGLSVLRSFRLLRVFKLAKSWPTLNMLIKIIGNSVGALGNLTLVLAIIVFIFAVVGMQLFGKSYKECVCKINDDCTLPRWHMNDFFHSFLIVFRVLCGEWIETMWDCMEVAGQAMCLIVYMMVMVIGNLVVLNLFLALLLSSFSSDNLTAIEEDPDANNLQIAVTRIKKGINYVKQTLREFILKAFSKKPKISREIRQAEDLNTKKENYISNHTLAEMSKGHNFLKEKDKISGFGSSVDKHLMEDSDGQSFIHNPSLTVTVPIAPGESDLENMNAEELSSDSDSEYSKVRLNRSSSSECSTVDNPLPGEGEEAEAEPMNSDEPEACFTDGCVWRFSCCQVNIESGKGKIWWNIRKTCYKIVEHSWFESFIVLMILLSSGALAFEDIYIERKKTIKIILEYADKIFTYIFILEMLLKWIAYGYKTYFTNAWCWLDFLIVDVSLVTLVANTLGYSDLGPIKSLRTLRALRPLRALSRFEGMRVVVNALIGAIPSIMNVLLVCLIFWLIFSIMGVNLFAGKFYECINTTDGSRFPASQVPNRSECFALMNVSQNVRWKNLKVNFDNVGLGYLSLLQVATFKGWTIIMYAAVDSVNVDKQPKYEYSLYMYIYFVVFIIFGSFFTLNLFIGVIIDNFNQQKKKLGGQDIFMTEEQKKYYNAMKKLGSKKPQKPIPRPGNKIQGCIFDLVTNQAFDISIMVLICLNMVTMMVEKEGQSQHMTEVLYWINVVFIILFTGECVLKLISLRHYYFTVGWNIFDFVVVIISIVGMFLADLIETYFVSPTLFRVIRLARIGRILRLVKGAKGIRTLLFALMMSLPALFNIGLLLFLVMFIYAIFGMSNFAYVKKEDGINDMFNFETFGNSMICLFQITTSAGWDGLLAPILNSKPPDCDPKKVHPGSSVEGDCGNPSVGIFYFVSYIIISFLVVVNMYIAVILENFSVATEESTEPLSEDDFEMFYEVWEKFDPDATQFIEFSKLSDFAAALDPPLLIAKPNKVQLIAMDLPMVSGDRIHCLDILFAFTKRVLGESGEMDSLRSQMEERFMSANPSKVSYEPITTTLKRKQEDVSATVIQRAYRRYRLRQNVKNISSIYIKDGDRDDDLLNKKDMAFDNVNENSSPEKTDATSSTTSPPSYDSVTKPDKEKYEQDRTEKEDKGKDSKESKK

| SMILES | PAMPA (10^−6 cm/s) [1] | inhibition at 30 µM (NaV1.7 [2]) [%] | inhibition at 32 µM (NaV1.7 [3]) [%] | inhibition at 1000 µM (NaV1.7 [2]; % inhibition at test concentration 1,000 μM) [%] | inhibition at 10 µM (NaV1.7 [3]) [%] | IC50 (NaV1.7 [4]) [µM] | IC50 (NaV1.7 [5]) [µM] | inhibition at 100 µM (NaV1.7 [2]; % inhibition at test concentration 100 μM) [%] |
| --- | --- | --- | --- | --- | --- | --- | --- | --- |
| Cc1cccc(C)c1NC(=O)C[n+]1c(C)cccc1C.[Br-] [Compound 6A, 1-(2-((2,6-dimethylphenyl)amino)-2-oxoethyl)-2,6-dimethylpyridin-1-ium bromide] | ++ (0.1-2.0 10^−6 cm/s) | – | > 95 | 40 to 70 | – | – | – | – |
| Cc1cccc(C)c1NC(=O)C[n+]1cccc(OC(C)C)c1 [Compound 87] | + (<0.1 10^−6 cm/s) | – | – | – | – | < 1 | > 100 | – |
| Cc1cccc(C)c1NC(=O)C[n+]1cccn1Cc1ccccc1 [Compound 92] | + (<0.1 10^−6 cm/s) | – | – | – | – | 1 to 3 | > 100 | – |
| Cc1cccc(C)c1NC(=O)C[n+]1cccc(OCc2ccccc2)c1 [Compound 88] | + (<0.1 10^−6 cm/s) | – | – | – | – | 3 to 10 | > 100 | – |
| Cc1cccc(C)c1NC(=O)C[n+]1cccc(C(C)C)c1 [Compound 31] | ++ (0.1-2.0 10^−6 cm/s) | – | – | – | – | 1 to 3 | > 100 | – |
| Cc1cccc(C)c1NC(=O)C[n+]1ccc(C)n1C(C)C [Compound 82] | + (<0.1 10^−6 cm/s) | – | – | – | – | 1 to 3 | > 100 | – |
| Cc1cccc(C)c1NC(=O)C[n+]1c(C)ccn1C [Compound 93] | + (<0.1 10^−6 cm/s) | – | – | – | – | 3 to 10 | > 100 | – |
| CCOC(=O)Cn1c(C)cc[n+]1CC(=O)Nc1c(C)cccc1C [Compound 86] | + (<0.1 10^−6 cm/s) | – | – | – | – | 3 to 10 | > 100 | – |
| Cc1cccc(C)c1NC(=O)C[n+]1cccn1C1CCC1 [Compound 72] | + (<0.1 10^−6 cm/s) | – | – | – | – | 3 to 10 | > 100 | – |
| Cc1cccc(C)c1NC(=O)C[n+]1cccn1CCC#N [Compound 70] | + (<0.1 10^−6 cm/s) | – | – | – | – | 10 to 30 | > 100 | – |

The remaining lines, values ahead:

| PAMPA (10^−6 cm/s) [1] | inhibition at 30 µM (NaV1.7 [2]) [%] | inhibition at 32 µM (NaV1.7 [3]) [%] | inhibition at 1000 µM (NaV1.7 [2]; % inhibition at test concentration 1,000 μM) [%] | inhibition at 10 µM (NaV1.7 [3]) [%] | IC50 (NaV1.7 [4]) [µM] | IC50 (NaV1.7 [5]) [µM] | inhibition at 100 µM (NaV1.7 [2]; % inhibition at test concentration 100 μM) [%] | SMILES |
| --- | --- | --- | --- | --- | --- | --- | --- | --- |
| + (<0.1 10^−6 cm/s) | < 40 | 70 to 95 | – | – | – | – | – | CCc1cccc[n+]1CC(=O)Nc1c(C)cccc1C.[Br-] [Compound 13A] |
| + (<0.1 10^−6 cm/s) | 40 to 70 | – | – | 70 to 95 | – | – | – | CCOC(=O)c1ccc[n+](CC(=O)Nc2c(C)cccc2C)c1.[Br-] [Compound 25A] |
| + (<0.1 10^−6 cm/s) | < 40 | > 95 | – | > 95 | – | – | – | Cc1cccc(C)c1NC(=O)C[n+]1cccc(-c2ccccc2)c1.[Br-] [Compound 12A, 1-(2-((2,6-dimethylphenyl)amino)-2-oxoethyl)-3-phenylpyridin-1-ium bromide] |
| + (<0.1 10^−6 cm/s) | < 40 | 70 to 95 | – | 70 to 95 | – | – | – | CCc1ccc[n+](CC(=O)Nc2c(C)cccc2C)c1.[Br-] [Compound 17A] |
| ++ (0.1-2.0 10^−6 cm/s) | – | > 95 | – | > 95 | – | – | < 40 | Cc1cccc(C)c1NC(=O)C[n+]1ccccc1-c1ccccc1.[Br-] [Compound 16A] |
